From PubChem BioAssay (NCI)
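In this assay, cells in 96-well plates receive the compound at five concentrations for 48 hours. Endpoints are linearly interpolated between the surrounding concentrations. Here, GI50 denotes the concentration required for 50% inhibition of growth. TGI: total growth inhibition.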

Assays:
Test in all cases: DTP human tumour cell line panel, 48 h
COLO 205 colon = test system: COLO 205 colon
HL-60(TB) leukemia = test system: HL-60(TB) leukemia
HOP-62 NSCLC = test system: HOP-62 NSCLC
KM12 colon = test system: KM12 colon
MDA-MB-435 = test system: MDA-MB-435
MOLT-4 leukemia = test system: MOLT-4 leukemia
SK-OV-3 ovarian = test system: SK-OV-3 ovarian
SN12C renal = test system: SN12C renal
SR leukemia = test system: SR leukemia
SW-620 colon = test system: SW-620 colon

Row | Structure (SMILES) | GI50 (COLO 205 colon) [µM] | TGI (COLO 205 colon) [µM] | GI50 (HL-60(TB) leukemia) [µM] | TGI (HL-60(TB) leukemia) [µM] | GI50 (HOP-62 NSCLC) [µM] | TGI (HOP-62 NSCLC) [µM] | GI50 (KM12 colon) [µM] | TGI (KM12 colon) [µM] | GI50 (MDA-MB-435) [µM] | TGI (MDA-MB-435) [µM] | GI50 (MOLT-4 leukemia) [µM] | TGI (MOLT-4 leukemia) [µM] | GI50 (SK-OV-3 ovarian) [µM] | TGI (SK-OV-3 ovarian) [µM] | GI50 (SN12C renal) [µM] | TGI (SN12C renal) [µM] | GI50 (SR leukemia) [µM] | TGI (SR leukemia) [µM] | GI50 (SW-620 colon) [µM] | TGI (SW-620 colon) [µM]
1 | O=C(NC(=S)Nc1cc(Cl)ccc1O)c1cccc(Br)c1 | 34.1 | > 100 | 7.12 | > 100 | 7.46 | > 100 | 5.78 | > 100 | 13.9 | > 100 | 4.47 | > 100 | 19.4 | > 100 | 12.5 | > 100 | 7.34 | > 100 | 4.77 | > 100
2 | Cc1cc(C(=O)c2ccccc2)c(C)c2c1[nH]c1ccc(Cl)cc12 | 0.102 | 1.36 | 0.0398 | 1.78 | 0.067 | 23 | 0.045 | 7.23 | 0.0286 | 0.321 | 0.103 | > 54.2 | 0.35 | > 50.6 | 0.117 | 14.3 | 0.0383 | > 63.4 | 0.0497 | > 100
3 | NC(=S)NN=C1CSSC1 | 2.4 | 5.67 | 0.516 | 6.81 | 2.04 | 12.2 | 5.92 | 23.5 | 5.79 | 44.7 | 3.75 | 43 | 5.25 | 25.1 | 4.67 | > 100 | 2.79 | > 100 | 8.06 | > 100
4 | Nc1c(C(=O)Nc2cccc(Cl)c2Cl)sc2nc3c(cc12)C(=O)CCC3 | 1.61 | > 100 | > 100 | > 100 | > 100 | > 100 | > 100 | > 100 | 0.277 | > 100 | > 100 | > 100 | 3.8 | > 100 | > 100 | > 100 | > 100 | > 100 | 61.2 | > 100
5 | CC(C)=CCCC(C)C1=C(O)C(=O)C(C)=CC1=O (stereo not given) | – | 18.2 | – | 0.586 | – | 36.9 | – | 34.6 | – | 43.5 | – | 5.12 | – | 78.5 | – | 34.6 | – | 5.39 | – | > 50.4
6 | O=C(O)c1cc2ccccc2c2c1C(=O)c1ccccc1-2 | – | > 100 | – | > 100 | – | > 100 | – | > 100 | – | > 100 | – | > 100 | – | > 100 | – | > 100 | – | > 100 | – | > 100
7 | O=C(O)C(Oc1nc(=S)[nH]c(=S)[nH]1)(c1ccc(Cl)cc1)c1ccc(Cl)cc1 | – | > 100 | – | > 100 | – | > 100 | – | > 100 | – | > 100 | – | > 100 | – | > 100 | – | > 100 | – | > 100 | – | > 100
8 | Oc1ccc(Cc2cc(Cl)cc(Cl)c2O)cc1Cl | – | 35 | – | 3.36 | – | 37.3 | – | 49.6 | – | 27.1 | – | 55.6 | – | 60.5 | – | 30.2 | – | 47.2 | – | 41.2
9 | CCN(CC)C(=S)[S][Bi]([S]C(=S)N(CC)CC)[S]C(=S)N(CC)CC | < 0.0208 | 0.131 | 0.127 | 19.9 | 1.9 | 3.39 | 1.61 | 3.1 | 0.984 | 2.2 | 0.0945 | 2.28 | 1.74 | 3.14 | 0.264 | 0.696 | 0.0353 | 23.4 | 0.0916 | 0.229
